From patent publication US7803930B2, “Antisense modulation of apolipoprotein B-expression” (Isis Pharmaceuticals, Inc., priority 2002, dated 2010)
In the oligonucleotide strings, read from the 5' end, every base follows the letter of its sugar. An asterisk marks phosphorothioate; unmarked linkages are phosphodiester. Other units and linkages are bracketed, terminal groups are in braces. A string of capitals states the bases alone. e = 2'-O-(2-methoxyethyl) (MOE); [5mC] = 5-methylcytosine; d = 2'-deoxy (DNA)

Legend:
Assay type in all cases: in vivo, mouse
[1] = LDLr(-/-) mice dose response (Example 44): liver enzyme, cholesterol and triglyceride levels; settings: six weeks
Method: (§1) LDLr(−/−) mice, purchased from Taconic (Germantown, N.Y.) were used to evaluate antisense oligonucleotides for their potential to lower apolipoprotein B mRNA or protein levels, as well as phenotypic endpoints associated with apolipoprotein B. LDLr(−/−) mice were separated into groups of males and females. LDLr(−/−) mice were dosed intraperitoneally twice a week for six weeks with either 10, 25, or 50 mg/kg of ISIS 147764 (SEQ ID NO: 109) or ISIS 270906 (SEQ ID NO: 856) which is a 4 base mismatch of ISIS 147764, or with saline, or 20 mg/kg of Atorvastatin. At study termination animals were sacrificed and evaluated for several phenotypic markers.

apolipoprotein B mRNA [2] = experiment: LDLr(-/-) mice dose response (Example 44): apolipoprotein B mRNA; settings: six weeks
Method: as §1

apolipoprotein B mRNA [3] = experiment: High fat fed mice, time-dependent effects and after cessation of dosing (Example 51): apolipoprotein B mRNA in liver; settings: liver, 50 mg/kg i.p. twice weekly
Method: In a further embodiment of the invention, the inhibition of apolipoprotein B mRNA in mice was compared to liver oligonucleotide concentration, total cholesterol, LDL-cholesterol and HDL-cholesterol. Male C57Bl/6 mice receiving a high fat diet (60% fat) were evaluated over the course of 6 weeks for the effects of treatment with twice weekly intraperitoneal injections of 50 mg/kg ISIS 147764 (SEQ ID NO: 109) or 50 mg/kg of the control oligonucleotide ISIS 141923 (SEQ ID NO: 858). Control animals received saline treatment. Animals were sacrificed after 2 days, 1, 2, 4 and 6 weeks of treatment. Each treatment group at each time point consisted of 8 mice.
Target expression in liver was measured by real-time PCR as described by other examples herein and is expressed as percent inhibition relative to saline treated mice. Total, LDL- and HDL-cholesterol levels were measured by routine clinical analysis using an Olympus Clinical Analyzer (Olympus America Inc., Melville, N.Y.) and are presented in mg/dL. Results from saline-treated animals are shown for comparison. Intact oligonucleotide in liver tissue was measured by capillary gel electrophoresis and is presented as micrograms of oligonucleotide per gram of tissue.
The oligonucleotide treatments described in this example were duplicated to investigate the extent to which effects of ISIS 147764 persist following cessation of treatment. Mice were treated as described, and sacrificed 1, 2, 4, 6 and 8 weeks following the cessation of oligonucleotide treatment.

[4] = female LDLr(-/-) mice, 10 mg/kg i.p. twice a week
[5] = female LDLr(-/-) mice, 25 mg/kg i.p. twice a week
[6] = female LDLr(-/-) mice, 50 mg/kg i.p. twice a week
[7] = male LDLr(-/-) mice, 10 mg/kg i.p. twice a week
[8] = male LDLr(-/-) mice, 25 mg/kg i.p. twice a week
[9] = male LDLr(-/-) mice, 50 mg/kg i.p. twice a week

## 147764 (eG*eT*e[5mC]*e[5mC]*e[5mC]*dT*dG*dA*dA*dG*dA*dT*dG*dT*d[5mC]*eA*eA*eT*eG*e[5mC]) [compound 147764]
[1]; [4]
  Lipoproteins CHOL: 269.6 mg/dL
  Lipoproteins HDL: 121.0 mg/dL
  Lipoproteins LDL: 127.8 mg/dL
  Lipoproteins TRIG: 140.8 mg/dL
  Liver Enzymes ALT: 27.2 IU/L
  Liver Enzymes AST: 82.0 IU/L
[1]; [5]
  Lipoproteins CHOL: 175.8 mg/dL
  Lipoproteins HDL: 99.5 mg/dL
  Lipoproteins LDL: 68.9 mg/dL
  Lipoproteins TRIG: 100.4 mg/dL
  Liver Enzymes ALT: 32.2 IU/L
  Liver Enzymes AST: 61.4 IU/L
[1]; [6]
  Lipoproteins CHOL: 138.2 mg/dL
  Lipoproteins HDL: 92.2 mg/dL
  Lipoproteins LDL: 45.9 mg/dL
  Lipoproteins TRIG: 98.0 mg/dL
  Liver Enzymes ALT: 120.4 IU/L
  Liver Enzymes AST: 134.6 IU/L
[1]; [7]
  Lipoproteins CHOL: 314.2 mg/dL
  Lipoproteins HDL: 150.0 mg/dL
  Lipoproteins LDL: 134.7 mg/dL
  Lipoproteins TRIG: 198.6 mg/dL
  Liver Enzymes ALT: 29.8 IU/L
  Liver Enzymes AST: 57.6 IU/L
[1]; [8]
  Lipoproteins CHOL: 185.0 mg/dL
  Lipoproteins HDL: 110.6 mg/dL
  Lipoproteins LDL: 66.2 mg/dL
  Lipoproteins TRIG: 104.2 mg/dL
  Liver Enzymes ALT: 78.8 IU/L
  Liver Enzymes AST: 112.6 IU/L
[1]; [9]
  Lipoproteins CHOL: 165.6 mg/dL
  Lipoproteins HDL: 107.8 mg/dL
  Lipoproteins LDL: 51.2 mg/dL
  Lipoproteins TRIG: 113.4 mg/dL
  Liver Enzymes ALT: 156.8 IU/L
  Liver Enzymes AST: 163.6 IU/L
Apolipoprotein B mRNA [2]; [4]
  apolipoprotein B mRNA % control: 64.2 % control
Apolipoprotein B mRNA [2]; [5]
  apolipoprotein B mRNA % control: 41.3 % control
Apolipoprotein B mRNA [2]; [6]
  apolipoprotein B mRNA % control: 18.5 % control
Apolipoprotein B mRNA [2]; [7]
  apolipoprotein B mRNA % control: 61.7 % control
Apolipoprotein B mRNA [2]; [8]
  apolipoprotein B mRNA % control: 30.7 % control
Apolipoprotein B mRNA [2]; [9]
  apolipoprotein B mRNA % control: 16.6 % control
Apolipoprotein B mRNA [3]; high fat fed male C57Bl/6 mice, treatment period 1 week
  % Inhibition apolipoprotein B mRNA: 57%
Apolipoprotein B mRNA [3]; high fat fed male C57Bl/6 mice, treatment period 2 weeks
  % Inhibition apolipoprotein B mRNA: 73%
Apolipoprotein B mRNA [3]; high fat fed male C57Bl/6 mice, treatment period 4 weeks
  % Inhibition apolipoprotein B mRNA: 82%
Apolipoprotein B mRNA [3]; high fat fed male C57Bl/6 mice, treatment period 6 weeks
  % Inhibition apolipoprotein B mRNA: 88%
Apolipoprotein B mRNA [3]; high fat fed male C57Bl/6 mice, treatment period 2 days
  % Inhibition apolipoprotein B mRNA: 50%
Apolipoprotein B mRNA [3]; high fat fed mice, 1 week after cessation of dosing
  % Inhibition apolipoprotein B mRNA: 82%
Apolipoprotein B mRNA [3]; high fat fed mice, 2 weeks after cessation of dosing
  % Inhibition apolipoprotein B mRNA: 78%
Apolipoprotein B mRNA [3]; high fat fed mice, 4 weeks after cessation of dosing
  % Inhibition apolipoprotein B mRNA: 49%
Apolipoprotein B mRNA [3]; high fat fed mice, 6 weeks after cessation of dosing
  % Inhibition apolipoprotein B mRNA: 37%
Apolipoprotein B mRNA [3]; high fat fed mice, 8 weeks after cessation of dosing
  % Inhibition apolipoprotein B mRNA: 19%
